The record followed here is ChEMBL document CHEMBL1138055, “Tetraoxane antimalarials and their reaction with Fe(II)” (J Med Chem, 2006).

Where “and” joins values, the source holds several entries; their conditions need not be identical. Equal values may be shown once.

A short description of data set [1]: Half life in mouse liver microsomes. Format: ADME, Microsome.
Data set [2] is filed under the species Mus musculus. Nature of the data set: Intrinsic clearance in mouse liver microsomes. It is filed as ADME, Microsome.
In data set [3] the test system is Plasmodium falciparum.
Description: (§1) Antimalarial activity against Plasmodium falciparum TM91C235
The test system of data set [4] is 786-0. Nature of the data set: Antiproliferative activity against human 786-0 cell line after 48 hrs. The following applies: 786-0, 48 h. Format: functional.
A short description of data set [5]: Half life in human liver microsomes. Format: ADME, Microsome.
Data set [6] relates to LOX IMVI. Nature of the data set: Antiproliferative activity against human LOX IMVI cell line after 48 hrs. The following applies: for CC50: read-out: LC50 (the source's name). Format: functional.
Data set [7] has as its system Liver microsomes. Nature of the data set: Intrinsic clearance in human liver microsomes. It is filed as ADME, Microsome.
Data set [8] relates to Plasmodium falciparum. The source holds these as a separate data set.
Description: (§2) Antimalarial activity against Plasmodium falciparum D6
In data set [9] the test system is Plasmodium falciparum. The source holds these as a separate data set.
Description: (§3) Antimalarial activity against Plasmodium falciparum W2
Data set [10] has as its system Mus musculus. Nature of the data set: Effect on survival of CD1 mice (Mus musculus) infected with Plasmodium berghei KBG173 at 200 mg/kg/day, perorally. Format: functional. The following applies: route oral.
Data set [11] deals with Mus musculus. Nature of the data set: Effect on survival of CD1 mice (Mus musculus) infected with Plasmodium berghei KBG173 at 50 mg/kg/day, perorally. Format: functional. The following applies: route oral.
Data set [12] concerns SR. Nature of the data set: Antiproliferative activity against human SR cell line after 48 hrs. It is filed as functional.
The test system of data set [13] is Mus musculus. Nature of the data set: Effect on survival of CD1 mice (Mus musculus) infected with Plasmodium berghei KBG173 at 600 mg/kg/day, perorally. More on the design: route oral. Format: functional, organism-based. The following applies: route oral.
Data set [14] deals with Plasmodium falciparum. Nature of the data set: microbe, parasite or virus in culture. The following applies: D6.
Description: as §2
Data set [15] relates to Mus musculus. Nature of the data set: Effect on survival of CD1 mice (Mus musculus) infected with Plasmodium berghei KBG173 at 4 mg/kg/day, peroral. The following applies: route oral. It is filed as functional.
Data set [16] concerns Plasmodium falciparum. Nature of the data set: microbe, parasite or virus in culture. The following applies: W2.
Description: as §3
The test system of data set [17] is Plasmodium falciparum. Nature of the data set: microbe, parasite or virus in culture. The following applies: TM91C235.
Description: as §1
The subject of data set [18] is Mus musculus. Nature of the data set: Effect on survival of CD1 mice (Mus musculus) infected with Plasmodium berghei KBG173 at 2 mg/kg/day, perorally. It is filed as functional. The following applies: route oral.
In data set [19] the test system is IGROV-1. Nature of the data set: Antiproliferative activity against human IGROV1 cell line after 48 hrs. It is filed as functional. The following applies: for CC50: read-out: LC50 (the source's name).
Data set [20] deals with SF-539. Nature of the data set: Antiproliferative activity against human SF539 cell line after 48 hrs. It is filed as functional. The following applies: SF-539, 48 h.
In data set [21] the test system is SK-MEL-28. Nature of the data set: Antiproliferative activity against human SK-MEL28 cell line after 48 hrs. Format: functional. The following applies: SK-MEL-28, 48 h.
The test system of data set [22] is COLO 205. Nature of the data set: Antiproliferative activity against human COLO 205 cell line after 48 hrs. It is filed as functional. The following applies: for CC50: read-out: LC50 (the source's name).
The subject of data set [23] is EKVX. Nature of the data set: Antiproliferative activity against human EKVX cell line after 48 hrs. Format: functional.
Data set [24] relates to U-251. Nature of the data set: Antiproliferative activity against human U251 cell line after 48 hrs. It is filed as functional. The following applies: U-251, 48 h.
For data set [25], the system named is UO-31. Nature of the data set: Antiproliferative activity against human UO31 cell line after 48 hrs. Format: functional. The following applies: for CC50: read-out: LC50 (the source's name).
The test system of data set [26] is HOP-62. Nature of the data set: Antiproliferative activity against human HOP62 cell line after 48 hrs. The following applies: for CC50: read-out: LC50 (the source's name). Format: functional.
The subject of data set [27] is ACHN. Nature of the data set: Antiproliferative activity against human ACHN cell line after 48 hrs. Format: functional.
In data set [28] the test system is SK-MEL-2. Nature of the data set: Antiproliferative activity against human SK-MEL2 cell line after 48 hrs. It is filed as functional. The following applies: SK-MEL-2, 48 h.
The subject of data set [29] is SNB-75. Nature of the data set: Antiproliferative activity against human SNB75 cell line after 48 hrs. The following applies: SNB-75, 48 h. It is filed as functional.
The test system of data set [30] is HCT-15. Nature of the data set: Antiproliferative activity against human HCT15 cell line after 48 hrs. It is filed as functional. The following applies: HCT-15, 48 h.
The test system of data set [31] is PC-3. Nature of the data set: Antiproliferative activity against human PC3 cell line after 48 hrs. Format: functional. The following applies: PC-3, 48 h.
For data set [32], the system named is UACC-62. Nature of the data set: Antiproliferative activity against human UACC62 cell line after 48 hrs. Format: functional. The following applies: UACC-62, 48 h.
For data set [33], the system named is DU-145. Nature of the data set: Antiproliferative activity against human DU145 cell line after 48 hrs. It is filed as functional. The following applies: DU-145, 48 h.
Where [34] appears, read: read-out: LC50 (the source's name).

On to `CC(=O)O[C@H]1C[C@H]2[C@@H]([C@H](OC(C)=O)C[C@@H]3CC4(CC[C@@]32C)OOC2(CCC(C(N)=O)CC2)OO4)[C@@H]2CC[C@H]([C@H](C)CCC(N)=O)[C@@]12C` (stereo in doubt; 7), for which the figures for the half-life in [1] and in data set [5] were 38 min and 21 min, respectively. In addition, the figures for the CL in [2] and in [7] were 1.59 mL/min/g and 3.4 mL/min/g, respectively. The concentration for half-maximal inhibition (IC50) in data set [3] worked out at 11.8 nM; in [8] it was 11 nM; in data set [9] it was 17.1 nM. Further, the 90% effect concentration (IC90) in [3] was found to be 56.7 nM; in data set [8], 17.3 nM; in data set [9] it was 34.4 nM. Moreover, the values for the GI50 in data set [4] and in data set [6] were 1690 nM and 1850 nM, respectively. Moreover, in [4], the 50% lethal concentration (LC50) amounted to 8080 nM. Moreover, the TGI in data set [4] turned out to be 3700 nM; in data set [6], 3950 nM. Further, in [6], the CC50 is 8420 nM.
Consider `CC(=O)O[C@H]1C[C@H]2[C@@H]([C@H](OC(C)=O)C[C@@H]3CC4(CC[C@@]32C)OOC2(CCC(C)CC2)OO4)[C@@H]2CC[C@H]([C@H](C)CCC(=O)O)[C@@]12C` (stereo in doubt; 16), for which the Activity was found to be 24.8 days in [10], 12.2 days in data set [11] and 29 days in data set [13]. The molecule further came in with a 50% growth inhibitory concentration (GI50) in [12] of 1630 nM. In [12], this molecule showed a concentration for total growth inhibition (TGI) of 3820 nM. In data set [12] (setting [34]), the CC50 came to 8920 nM. Besides, the IC50 in data set [8] was 1.53 nM; in [9], 0.98 nM.
Consider `CCN(CC)CCCC(C)Nc1ccnc2cc(Cl)ccc12` (stereo not drawn) [CHLOROQUINE], for which the IC90 in data set [14] was determined as 17.6 nM; in data set [16] it was 492 nM; in data set [17], 269 nM. Further, the Activity in [15] was 25.6 days; in [18] it was 12.8 days.
Consider `CC(=O)O[C@H]1C[C@H]2[C@@H]([C@H](OC(C)=O)C[C@@H]3CC4(CC[C@@]32C)OOC2(CCC(C(=O)NCCN(C)C)CC2)OO4)[C@@H]2CC[C@H]([C@H](C)CCC(=O)NCCN(C)C)[C@@]12C` (stereo in doubt; 11), for which the half-life in data set [1] and in [5] was over 120 min each time. Further, the concentration for 50% growth inhibition (GI50) is 900 nM in [19] (Homo sapiens, IGROV-1, 48 h); 1470 nM in data set [20]; 1920 nM in [21]; 1180 nM in data set [6]. For the same molecule, the concentration for total growth inhibition (TGI) amounted to 2620 nM in data set [19] (Homo sapiens, IGROV-1, 48 h); 2990 nM in data set [20]; 11300 nM in data set [21]; 2820 nM in data set [6]. In addition, the CC50 was 13400 nM in data set [19] (Homo sapiens, IGROV-1, 48 h); 9930 nM in data set [20] (setting [34]); 37000 nM in data set [21] (setting [34]); 19900 nM in data set [6]. For the same molecule, the CL in data set [2] and in [7] was under 0.6 mL/min/g throughout. Also, the results for the IC50 in [3], in data set [8] and in data set [9] were 81.4 nM, 75.6 nM and 113 nM, respectively. Further, the results for the 90% effect concentration (IC90) in data set [3], in data set [8] and in [9] were 110 nM, 94.1 nM and 126 nM, respectively.
Consider `CC(=O)O[C@H]1C[C@H]2[C@@H]([C@H](OC(C)=O)C[C@@H]3CC4(CC[C@@]32C)OOC2(CCC(C)CC2)OO4)[C@@H]2CC[C@H]([C@H](C)CCC(N)=O)[C@@]12C` (stereo in doubt; 15), for which the GI50 in [19] stood at 1540 nM; in data set [23], 1010 nM; in data set [24], 1780 nM; in data set [26], 1470 nM. Further, the TGI amounted to 3070 nM in data set [19]; 3190 nM in [22]; 2350 nM in [23]; 3780 nM in data set [24]; 3080 nM in data set [25]; 2960 nM in data set [26]. Moreover, the TGI in data set [27] was 3880 nM. Further, the CC50 was 6140 nM in [19]; 6520 nM in [22]; 8060 nM in [24] (setting [34]); 6110 nM in data set [25]; 5960 nM in [26]. The Activity in data set [10] was 27.2 days; in data set [11], 21.4 days; in [13], 29.2 days. The LC50 was 5490 nM in [23]; 1800 nM and 8350 nM in data set [27].
On to `CC(=O)O[C@H]1C[C@H]2[C@@H]([C@H](OC(C)=O)C[C@@H]3CC4(CC[C@@]32C)OOC2(CCC(C)CC2)OO4)[C@@H]2CC[C@H]([C@H](C)CCC(N)=O)[C@@]12C` (stereo in doubt; 17), for which the GI50 in data set [28] is 1710 nM; in data set [19], 490 nM; in data set [29] it was 1980 nM; in data set [30] it was 1710 nM; in data set [22] (Homo sapiens, COLO 205, 48 h), 1690 nM; in data set [23] (Homo sapiens, EKVX, 48 h), 1430 nM. In addition, the GI50 in data set [25] (Homo sapiens, UO-31, 48 h) is 1260 nM; in [26] (Homo sapiens, HOP-62, 48 h) it was 1070 nM; in data set [31] it was 1970 nM; in [32], 1850 nM; in [27] (Homo sapiens, ACHN, 48 h) it was 1500 nM; in [33], 1820 nM. The concentration for total growth inhibition (TGI) is 3200 nM in data set [28]; 1840 nM in data set [19] (Homo sapiens, IGROV-1, 48 h); 4050 nM in data set [29]; 3430 nM in data set [30]; 3120 nM in data set [22] (Homo sapiens, COLO 205, 48 h); 2780 nM in [23] (Homo sapiens, EKVX, 48 h). Besides, the TGI in data set [25] (Homo sapiens, UO-31, 48 h) was found to be 2640 nM; in [26] (Homo sapiens, HOP-62, 48 h) it was 2310 nM; in data set [31], 4290 nM; in [32] it was 3990 nM; in [27] (Homo sapiens, ACHN, 48 h), 2930 nM; in data set [33] it was 3260 nM. The CC50 is 6010 nM in data set [28] (setting [34]); 4950 nM in data set [19] (Homo sapiens, IGROV-1, 48 h); 8280 nM in data set [29] (setting [34]); 6860 nM in data set [30] (setting [34]); 5760 nM in data set [22] (Homo sapiens, COLO 205, 48 h); 5500 nM in data set [25] (Homo sapiens, UO-31, 48 h). In addition, the CC50 in data set [26] (Homo sapiens, HOP-62, 48 h) is 4980 nM; in [31] (setting [34]) it was 9310 nM; in data set [32] (setting [34]) it was 8590 nM; in [33] (setting [34]), 5850 nM. For the same molecule, the Activity in data set [10] is 21.8 days; in data set [11] it was 21.2 days; in data set [13] it was 30 days. The median lethal concentration (LC50) in [23] (Homo sapiens, EKVX, 48 h) stood at 5410 nM; in [27] it was 5730 nM. In addition, the IC50 in [8] stood at 20 nM; in data set [9] it was 14.1 nM.
